System: Molt-4-luc leukemia
Settings: positive control group
Procedure: The objective was to evaluate the anti-tumor efficacy of different compounds in leukemia model in Balb/c nude mice.
Female Balb/c nude mice, with a body weight of approximately 20 grams, were obtained from an approved vendor (Shanghai BK Laboratory Animal Co., LTD., Shanghai, China). Upon arrival, animals were assessed as to their general health by a member of a veterinary staff or authorized personnel. Animals were acclimated for at least three days (upon arrival at the experiment room) before being used for the study. Animals were housed in groups during acclimation and individually housed during in-life. […] Temperature and relative humidity were monitored daily. […]
The tumor cells were routinely subcultured twice weekly. The cells growing in an exponential growth phase were harvested and counted for tumor inoculation. […]
Mice were randomly assigned to 16 groups (vehicle control, positive control, and 14 testing article groups) based on the body weight. […] Whole body and metastatic bioluminescence were measured and recorded.
The inoculated mice were weighted and intraperitoneally injected luciferin at 150 mg/kg. […] The bioluminescence of the whole animal body, including primary and metastatic tumors, was measured and images are recorded.
Bioluminescence (BL) of the whole animal body, including primary and metastatic tumors, was measured and images were recorded using a fixed intensity scale. […]

SMILES: O=P1(N(CCCl)CCCl)NCCCO1 (centres unmarked) [Cyclophosphamide]
- mice died (day 111 after cell injection, the mouse showed bioluminescence signal): one
- outcome until day 150: died
